Measurements reported in PubChem BioAssay (NCI).
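Grown in 96-well plates, cells were treated for 48 hours with each compound at five concentrations. Insufficient inhibition: endpoint recorded as highest concentration tested. Definition used: TGI = concentration required for complete inhibition of growth.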 Where a SMILES comes first, the peptide text is derived from it. [ ]: non-standard residue; d: D form. The star is where a group is joined. ξ: configuration not given here. ξD = NC(CC(=O)O)C(=O)O; Boc = CC(C)(C)OC(=O)*; Aib = CC(C)(N)C(=O)O; OBn = c1ccc(CO*)cc1

What was measured:
Assay in all cases: inhibition of tumour cell growth, NCI panel, 48 h
A549 NSCLC = test system: A549 NSCLC
BT-549 breast = test system: BT-549 breast
HS 578T breast = test system: HS 578T breast
HT29 colon = test system: HT29 colon
IGROV1 ovarian = test system: IGROV1 ovarian
M14 melanoma = test system: M14 melanoma
MDA-N = test system: MDA-N
NCI-H460 lung = test system: NCI-H460 lung
OVCAR-3 ovarian = test system: OVCAR-3 ovarian
SF-268 CNS = test system: SF-268 CNS
SK-MEL-28 melanoma = test system: SK-MEL-28 melanoma
SK-OV-3 ovarian = test system: SK-OV-3 ovarian
SNB-19 CNS = test system: SNB-19 CNS
TK-10 renal = test system: TK-10 renal
UACC-257 melanoma = test system: UACC-257 melanoma
UO-31 renal = test system: UO-31 renal
HCC-2998 colon = test system: HCC-2998 colon

SMILES	TGI (A549 NSCLC)	TGI (BT-549 breast)	TGI (HS 578T breast)	TGI (HT29 colon)	TGI (IGROV1 ovarian)	TGI (M14 melanoma)	TGI (MDA-N)	TGI (NCI-H460 lung)	TGI (OVCAR-3 ovarian)	TGI (SF-268 CNS)	TGI (SK-MEL-28 melanoma)	TGI (SK-OV-3 ovarian)	TGI (SNB-19 CNS)	TGI (TK-10 renal)	TGI (UACC-257 melanoma)	TGI (UO-31 renal)	TGI (HCC-2998 colon)
CC(C)(C)OC(=O)NC(CC(=O)OCc1ccccc1)C(=O)NC(C)(C)C(N)=O (stereo not drawn) (Boc-[ξD](OBn)-[Aib]-NH2)	> 100 µM	> 100 µM	> 100 µM	> 100 µM	> 100 µM	> 100 µM	> 100 µM	> 100 µM	> 100 µM	> 100 µM	> 100 µM	> 100 µM	> 100 µM	> 100 µM	> 100 µM	> 100 µM	
CCCC(=O)OCC1OC(n2cc(F)c(=O)[nH]c2=O)C(F)C1O (stereo not drawn)	> 100 µM	> 100 µM	> 100 µM	> 100 µM	> 100 µM	> 100 µM	> 100 µM	> 100 µM	> 100 µM	> 100 µM	> 100 µM	> 100 µM	> 100 µM	> 100 µM	> 100 µM	> 100 µM	> 100 µM
FC(F)(F)c1ccc2c(-c3cc[nH]c3)ccnc2c1	75 µM	68.9 µM	56.4 µM	39.2 µM	> 100 µM	> 100 µM	> 100 µM	> 100 µM	88 µM		> 100 µM	> 100 µM	58.8 µM	70.1 µM	> 100 µM	48.3 µM	> 100 µM
Cc1ccc(S(=O)(=O)C2=Cc3ccccc3C2(O)c2ccccc2)cc1 (stereo not drawn)	> 100 µM	63.1 µM	81.9 µM	36.1 µM	> 100 µM	31 µM	48.2 µM	54.6 µM		> 100 µM	31.1 µM	79.2 µM	> 100 µM	> 100 µM	> 10 µM		91.3 µM
O=C(/C=C/c1ccc([N+](=O)[O-])cc1)N1CCN(CCOC(c2ccc(F)cc2)c2ccc(F)cc2)CC1	> 100 µM	> 100 µM	> 100 µM	> 100 µM	> 100 µM	> 100 µM	> 100 µM	> 100 µM	> 100 µM	> 100 µM	> 100 µM	> 100 µM	> 100 µM	> 100 µM	> 100 µM	96.4 µM	> 100 µM
CCCCCCCCCCC/C=C(/C(=O)CCCO[Si](C)(C)C(C)(C)C)C(=O)OC		> 100 µM	> 100 µM	> 100 µM	> 100 µM	> 100 µM	> 100 µM	> 100 µM	> 100 µM	> 100 µM	> 100 µM	> 100 µM	> 100 µM	> 100 µM	> 100 µM	> 100 µM	> 100 µM
CCOC(=O)c1cc(=O)c2cccc3c2n1CCS3	> 100 µM	> 100 µM	> 100 µM	> 100 µM	> 100 µM	> 100 µM	> 100 µM	> 100 µM	> 100 µM	> 100 µM	> 100 µM	> 100 µM	> 100 µM	> 100 µM	> 100 µM	> 100 µM	
